Experimental data taken from PubChem BioAssay (NCI).
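Briefly, cells in 96-well plates were exposed to five compound concentrations for 48 h, and endpoints were estimated by linear interpolation. GI50 = concentration required for 50% inhibition of growth. TGI marks complete inhibition of growth.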

What was measured:
Assay in all cases: NCI tumour cell line growth inhibition, 48 h
ACHN renal = system: ACHN renal
786-0 renal = system: 786-0 renal
UACC-257 melanoma = system: UACC-257 melanoma
A498 renal = system: A498 renal
OVCAR-5 ovarian = system: OVCAR-5 ovarian
CCRF-CEM leukemia = system: CCRF-CEM leukemia
A549 NSCLC = system: A549 NSCLC
HOP-62 NSCLC = system: HOP-62 NSCLC
MALME-3M melanoma = system: MALME-3M melanoma
T-47D breast = system: T-47D breast
IGROV1 ovarian = system: IGROV1 ovarian
SF-539 CNS = system: SF-539 CNS

Row | SMILES | TGI (ACHN renal) | TGI (786-0 renal) | TGI (UACC-257 melanoma) | TGI (A498 renal) | TGI (OVCAR-5 ovarian) | TGI (CCRF-CEM leukemia) | TGI (A549 NSCLC) | TGI (HOP-62 NSCLC) | TGI (MALME-3M melanoma) | TGI (T-47D breast) | TGI (IGROV1 ovarian) | TGI (SF-539 CNS) | GI50 (CCRF-CEM leukemia) | GI50 (IGROV1 ovarian) | GI50 (T-47D breast)
1 | NC(CC(O)(c1ccccc1)c1ccccc1)c1ccccc1S (stereo not drawn) | 27.3 µM | 29.4 µM | 43.8 µM | 32.7 µM | 31.7 µM | 40.7 µM | 29.5 µM | 30.2 µM | 54.8 µM | 37.4 µM | – | – | – | – | –
2 | CN(Cc1cnc2nc(N)nc(N)c2n1)c1ccc(C(=O)NC(CCC(=O)NC(CC(P(=O)(O)O)P(=O)(O)O)C(=O)O)C(=O)O)cc1 (stereo not drawn) | > 100 µM | > 100 µM | > 100 µM | – | > 100 µM | – | > 100 µM | > 100 µM | > 100 µM | > 100 µM | > 100 µM | – | – | – | –
3 | CC1=CCC[C@H]2[C@](C)(CC3=CC(=O)C(Sc4ccccc4)=CC3=O)[C@@H](C)CC[C@]12C | 35.3 µM | 32.2 µM | 32.5 µM | 39 µM | 32.1 µM | 17.4 µM | 33.3 µM | 32.6 µM | – | 72 µM | 30.4 µM | 34.6 µM | 3.89 µM | 16.2 µM | 20.4 µM
4 | N[C@H](CCC(=O)NCP(=O)(O)O)C(=O)O | > 100 µM | > 100 µM | > 100 µM | > 100 µM | > 100 µM | – | > 100 µM | > 100 µM | > 100 µM | > 100 µM | > 100 µM | > 100 µM | – | – | –
5 | COc1ccc2[nH]c(C(=O)N3CC(CCl)c4c3cc(N)c3ccccc43)cc2c1 (stereo not drawn) | – | – | – | 0.0399 µM | 0.315 µM | 0.0681 µM | – | 0.0358 µM | – | < 0.0281 µM | 18.2 µM | – | – | – | –
6 | O=[N+]([O-])c1ccc(O)c(/C=N/c2nc(-c3ccccc3)cs2)c1 | > 100 µM | > 100 µM | > 100 µM | > 100 µM | > 100 µM | > 100 µM | > 100 µM | > 90.5 µM | 74.6 µM | 91.6 µM | 74.3 µM | – | – | – | –
7 | CCN(CC)CCOc1ccc(C(O)(Cc2ccc(OC)cc2)c2ccccc2)cc1 (stereo not drawn) | 65.3 µM | 32.3 µM | 30.3 µM | 41.2 µM | 61.5 µM | 44.9 µM | 48.5 µM | 32.5 µM | 33 µM | – | 87.8 µM | 25.1 µM | – | – | –
8 | N=c1oc2ccccc2cc1-c1nc2ccccc2c(=O)[nH]1 | > 100 µM | > 100 µM | > 100 µM | – | > 100 µM | > 100 µM | > 100 µM | 69.9 µM | > 100 µM | > 100 µM | > 100 µM | > 100 µM | – | – | –
9 | Cc1cc(N2CCCC2)c([N+](=O)[O-])cc1[N+](=O)[O-] | > 100 µM | > 100 µM | > 100 µM | > 100 µM | – | > 100 µM | > 100 µM | – | > 100 µM | > 100 µM | > 100 µM | > 100 µM | – | – | –
10 | CCCCCCCCCCCCCCCCCC(=O)Nc1ccn(C2CCC(COP(=O)(O)O)O2)c(=O)n1 (stereo not drawn) | > 100 µM | > 100 µM | > 100 µM | > 100 µM | > 100 µM | > 100 µM | > 100 µM | > 100 µM | – | > 100 µM | > 100 µM | > 100 µM | – | – | –
11 | COC(=O)c1ccccc1C1=C([N+](=O)[O-])C(c2ccccc2)C(C#N)=C(N)O1 (stereo not drawn) | > 100 µM | > 100 µM | > 100 µM | – | > 100 µM | > 100 µM | > 100 µM | > 100 µM | – | > 100 µM | > 100 µM | > 100 µM | – | – | –
12 | S=c1sc2cscc2s1 | 42.5 µM | 46.5 µM | 44.7 µM | > 100 µM | > 100 µM | 78 µM | 37.5 µM | 74.5 µM | 30.6 µM | – | > 100 µM | 65.5 µM | – | – | –
13 | C[n+]1c2ccccc2c(/C=N\NS(=O)(=O)c2ccc(Cl)cc2)c2ccccc21 | > 100 µM | > 100 µM | > 100 µM | > 100 µM | > 100 µM | > 100 µM | > 100 µM | > 100 µM | > 100 µM | – | > 100 µM | > 100 µM | – | – | –
14 | COC1=C2C=[N+](C)C3C(=C2C=CC1OC)Cc1cc2c(cc13)OCO2 (stereo not drawn) | – | 29.6 µM | 26.2 µM | > 100 µM | 32.1 µM | > 100 µM | 32.4 µM | 26.8 µM | 18.8 µM | 18.8 µM | – | 24 µM | – | – | –
15 | O=C(O)CNC(=O)c1ccc2cc(C(=O)N3CC(CCl)c4ccc([N+](=O)[O-])cc43)[nH]c2c1 (stereo not drawn) | > 100 µM | > 100 µM | > 100 µM | – | > 100 µM | > 100 µM | > 100 µM | – | – | > 100 µM | > 100 µM | > 100 µM | – | – | –
16 | O=C1CS(=O)(=O)C(c2cccc(Oc3ccccc3)c2)N1c1ccccc1 (stereo not drawn) | 64.8 µM | 37.8 µM | 46 µM | 41.8 µM | > 100 µM | > 100 µM | > 100 µM | > 100 µM | 42.6 µM | > 100 µM | – | 39.6 µM | – | – | –
17 | CNC(=S)NNc1ncnc2c1ncn2-c1ccc(C)cc1 | – | > 100 µM | > 100 µM | > 100 µM | > 100 µM | > 100 µM | > 100 µM | > 100 µM | > 100 µM | > 100 µM | > 100 µM | > 100 µM | – | – | –
18 | COc1ccc([C@]23CCN4COC[C@@H]([C@H]42)C2(CC3)OCC(C)(C)CO2)cc1OC | > 100 µM | > 100 µM | > 100 µM | > 100 µM | > 100 µM | > 100 µM | > 100 µM | > 100 µM | > 100 µM | > 100 µM | > 100 µM | – | – | – | –
19 | COP(=O)(O)C(N)Cc1c[nH]c2ccccc12 (stereo not drawn) | > 100 µM | – | > 100 µM | > 100 µM | > 100 µM | > 100 µM | > 100 µM | > 100 µM | – | > 100 µM | > 100 µM | – | – | – | –
20 | COc1ccc2c(c1)CCN1CCCc3ccccc3C21 (stereo not drawn) | > 100 µM | > 100 µM | > 100 µM | > 100 µM | > 100 µM | > 100 µM | > 100 µM | > 100 µM | – | > 100 µM | > 100 µM | 34.7 µM | – | – | –
